# Reference: ChEMBL document CHEMBL5331043, “A comprehensive review on acridone based derivatives as future anti-cancer agents and their structure activity relationships” (Eur J Med Chem, 2022)
# Values joined by “and” are separate entries in the source; they are usually repeats but may differ in a detail not shown here. Equal entries are not always repeated.
# Columns and labels:
# [1] = system: SW1573; assay: Cytotoxicity against human SW1573 cells assessed as reduction in cell viability incubated for 72 hrs by SRB assay; type: functional, cell-based; settings: SW1573, 72 h
# [2] = system: MCF7; assay: Antitumor activity against human MCF7 cells xenografted in BALB/c nude mouse assessed as inhibition of tumor growth at 1 mg/kg, ip administered once daily for 21 days; type: functional; settings: MCF7, 504 h, time 21 day, read-out: TGI
# [3] = system: PC-3; assay: Antiproliferative activity against human PC-3 cells assessed as reduction in cell viability measured after 24 hrs by MTT assay; type: functional, cell-based; settings: PC-3, 24 h
# [4] = system: MCF7; assay: Cytotoxicity against human MCF7 cells assessed as reduction in cell viability incubated for 48 hrs by alamar blue reagent based fluorescence assay; type: functional; settings: MCF7, 48 h
# [5] = system: HepG2; assay: Cytotoxicity against human HepG2 cells assessed as reduction in cell viability incubated for 48 hrs by alamar blue reagent based fluorescence assay; type: functional; settings: HepG2, 48 h
# [6] = system: MCF7; assay: Cytotoxicity against human MCF7 cells assessed as reduction in cell viability incubated for 72 hrs by MTT assay; type: functional, cell-based; settings: MCF7, 72 h
# [7] = system: MDA-MB-231; assay: Cytotoxicity against human MDA-MB-231 cells assessed as reduction in cell viability incubated for 72 hrs by MTT assay; type: functional, cell-based; settings: MDA-MB-231, 72 h
# [8] = system: MCF7; assay: Cytotoxicity against human wild type MCF7 cells; type: functional, cell-based
# [9] = Cytotoxicity against human MCF7/Mitox cells; type: functional, cell-based
# [10] = system: MCF7-DOX; assay: Cytotoxicity against human MCF7-DOX cells; type: functional, cell-based
# [11] = system: MCF7; assay: Cytotoxicity against human MCF7 cells assessed as reduction in cell viability measured after 72 hrs by MTT assay; type: functional, cell-based; settings: MCF7, 72 h
# [12] = system: A-431; assay: Cytotoxicity against human A-431 cells assessed as reduction in cell viability measured after 72 hrs by MTT assay; type: functional, cell-based; settings: A-431, 72 h
# [13] = system: HeLa; assay: Cytotoxicity against human HeLa cells assessed as reduction in cell viability measured after 72 hrs by MTT assay; type: functional, cell-based
# [14] = molecular target: Stimulator of interferon genes protein (Homo sapiens, UniProt Q86WV6); assay: Activation of STING pathway in human 293T-hSTING-R232 cells incubated for 48 hrs by QUANTI-Luc assay; type: cell-based, 293T-hSTING-R232 cell
# [15] = system: HL-60; assay: Cytotoxicity against human HL-60 cells assessed as cell growth inhibition incubated for 72 hrs by tryphan blue staining based analysis; type: functional; settings: HL-60, 72 h
# [16] = system: HL60/ADR; assay: Cytotoxicity against drug resistant human HL60/ADR cells assessed as inhibition of cell growth incubated for 72 hrs by SRB assay; type: functional, cell-based
# [17] = Cytotoxicity against drug resistant human HL60/VCR assessed as inhibition of cell growth incubated for 72 hrs by SRB assay; type: functional, cell-based
# [18] = system: HL-60; assay: Cytotoxicity against human HL-60 cells assessed as cell growth inhibition incubated for 72 hrs by SRB assay; type: functional, cell-based; settings: HL-60, 72 h
# [19] = molecular target: MAP/microtubule affinity-regulating kinase 4 (Homo sapiens, UniProt Q96L34); assay: Inhibition of human MARK4 ATPase activity using ATP as substrate incubated for 10 to 20 mins by Biomol green reagent based ELISA analysis
# [20] = system: MCF7; assay: Antiproliferative activity against human MCF7 cells assessed as reduction in cell viability incubated for 48 hrs by MTT assay; type: functional, cell-based; settings: MCF7, 48 h
# [21] = system: P388; assay: Cytotoxicity against mouse P388 cells; type: functional, cell-based
# [22] = system: MCF7; assay: Antiproliferative activity against human MCF7 cells assessed as reduction in cell viability incubated for 72 hrs by MTT assay; type: functional, cell-based; settings: MCF7, 72 h
# [23] = system: HepG2; assay: Antiproliferative activity against human HepG2 cells assessed as reduction in cell viability incubated for 72 hrs by MTT assay; type: functional, cell-based; settings: HepG2, 72 h
# [24] = system: PC-3; assay: Antiproliferative activity against human PC-3 cells assessed as reduction in cell viability incubated for 72 hrs by MTT assay; type: functional, cell-based; settings: PC-3, 72 h
# [25] = system: A549; assay: Antiproliferative activity against human A549 cells assessed as reduction in cell viability incubated for 72 hrs by MTT assay; type: functional, cell-based; settings: A549, 72 h
# [26] = Cytotoxicity against human KB-ChR-8-5 cells assessed as reduction in cell growth incubated for 7 days in presence of vinblastine; type: functional, cell-based; settings: KB-ChR-8-5, 168 h
# [27] = system: MCF7; assay: Cytotoxicity against human MCF7 cells assessed as reduction in cell viability by SRB assay; type: functional, cell-based
# [28] = system: CCRF-CEM; assay: Cytotoxicity against human CCRF-CEM cells assessed as cell growth inhibition; type: functional, cell-based
# [29] = Cytotoxicity against human MDA-MB-231/BCRP cells assessed as reduction in cell growth by resazurin reduction assay; type: functional, cell-based
# [30] = system: HL-60; assay: Anticancer activity against human HL-60 cells assessed as cell growth inhibition incubated for 72 hrs by MTT assay; type: functional, cell-based; settings: HL-60, 72 h
# [31] = system: MCF7; assay: Cytotoxicity against human MCF7 cells assessed as reduction in cell growth incubated for 72 hrs by SRB assay; type: functional, cell-based; settings: MCF7, 72 h
# [32] = Cytotoxicity against human SW1398 cells assessed as cell growth inhibition incubated for 72 hrs by SRB assay; type: functional, cell-based; settings: SW1398, 72 h
# [33] = system: WiDr; assay: Cytotoxicity against human WiDr cells assessed as cell growth inhibition incubated for 72 hrs by SRB assay; type: functional, cell-based
# [34] = system: MCF7; assay: Cytotoxicity against human MCF7 cells assessed as cell growth inhibition incubated for 72 hrs by SRB assay; type: functional, cell-based; settings: MCF7, 72 h
# [35] = system: Raji; assay: Antitumor activity against human Raji cells xenografted in ICR mouse assessed as reduction in tumor growth measured after 20 weeks; type: functional; design: scale not given: the % may be the effect or the level left
# [36] = system: NCI-H23; assay: Cytotoxicity against human NCI-H23 cells; type: functional; settings: read-out: LC50 (the source's name)
# [37] = system: M14; assay: Cytotoxicity against human M14 cells; type: functional; settings: read-out: LC50 (the source's name)
# [38] = system: UACC-62; assay: Cytotoxicity against human UACC-62 cells; type: functional; settings: read-out: LC50 (the source's name)
# [39] = system: A498; assay: Cytotoxicity against human A498 cells; type: functional; settings: read-out: LC50 (the source's name)
# [40] = system: MCF7; assay: Cytotoxicity against human wild type MCF7 cells assessed as reduction in cell viability measured after 72 hrs by SRB assay; type: functional, cell-based; settings: MCF7, 72 h
# [41] = Cytotoxicity against human mitoxantrone resistant human MCF7/Mitox cells assessed as reduction in cell viability incubated for 72 hrs by SRB assay; type: functional, cell-based
# [42] = system: MCF7-DOX; assay: Cytotoxicity against human doxorubicin resistant MCF7-DOX cells assessed as reduction in cell viability incubated for 72 hrs by SRB assay; type: functional, cell-based
# [43] = system: HepG2; assay: Cytotoxicity against human HepG2 cells assessed as reduction in cell viability incubated for 24 hrs by SRB assay; type: functional, cell-based; settings: HepG2, 24 h
# [44] = Cytotoxicity against human KKU-213C assessed as reduction in cell viability incubated for 24 hrs by SRB assay; type: functional, cell-based
# MAP/microtubule affinity-regulating kinase 4, sequence (Q96L34 whole entry): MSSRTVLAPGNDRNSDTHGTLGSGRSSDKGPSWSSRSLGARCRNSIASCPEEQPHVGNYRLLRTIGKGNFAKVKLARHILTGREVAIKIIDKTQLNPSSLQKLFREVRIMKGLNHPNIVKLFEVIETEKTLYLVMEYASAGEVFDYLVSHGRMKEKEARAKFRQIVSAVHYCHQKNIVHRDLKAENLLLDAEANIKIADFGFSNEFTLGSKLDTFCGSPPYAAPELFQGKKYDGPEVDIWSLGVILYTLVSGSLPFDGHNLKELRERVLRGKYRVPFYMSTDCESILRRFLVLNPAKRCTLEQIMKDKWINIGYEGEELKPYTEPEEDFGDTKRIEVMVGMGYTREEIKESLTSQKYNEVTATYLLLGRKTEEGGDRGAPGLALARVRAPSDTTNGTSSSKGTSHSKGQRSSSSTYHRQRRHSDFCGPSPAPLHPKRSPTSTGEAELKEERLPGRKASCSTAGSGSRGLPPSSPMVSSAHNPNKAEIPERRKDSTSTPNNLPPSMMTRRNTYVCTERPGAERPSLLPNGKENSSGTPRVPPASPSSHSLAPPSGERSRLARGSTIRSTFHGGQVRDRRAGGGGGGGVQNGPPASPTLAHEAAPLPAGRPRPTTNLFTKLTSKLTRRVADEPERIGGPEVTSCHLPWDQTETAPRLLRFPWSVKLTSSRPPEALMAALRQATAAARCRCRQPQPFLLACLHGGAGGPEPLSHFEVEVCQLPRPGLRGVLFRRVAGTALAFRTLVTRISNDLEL
# Stimulator of interferon genes protein, sequence (Q86WV6 whole entry): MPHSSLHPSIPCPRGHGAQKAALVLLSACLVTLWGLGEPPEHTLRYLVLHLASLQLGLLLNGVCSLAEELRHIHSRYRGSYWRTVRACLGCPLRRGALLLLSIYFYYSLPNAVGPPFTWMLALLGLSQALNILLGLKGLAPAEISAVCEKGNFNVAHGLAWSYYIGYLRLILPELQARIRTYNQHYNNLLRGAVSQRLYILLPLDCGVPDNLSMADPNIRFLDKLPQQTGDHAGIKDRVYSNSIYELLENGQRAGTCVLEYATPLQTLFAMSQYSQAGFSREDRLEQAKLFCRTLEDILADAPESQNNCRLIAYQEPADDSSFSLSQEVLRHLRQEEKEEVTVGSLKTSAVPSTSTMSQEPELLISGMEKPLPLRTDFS
structure (smiles),measurement,setting,value
O=c1c2ccccc2n(CCCCN2CCN(CCO)CC2)c2c(F)cccc12,IC50,[1],5.1 µM
O=c1c2ccccc2[nH]c2ccccc12 [ACRIDONE],inhibition in vivo at 1 mg/kg,[2],29%
CCN(CC)CCNC(=O)c1ccc([N+](=O)[O-])c2[nH]c3ccccc3c(=O)c12,IC50,[3],2 µM
COc1cc(O)c2c(=O)c3cccc(O)c3n(C)c2c1OC [CITRUSININE-I],IC50,[4],0.22 µM
same,IC50,[5],0.22 µM
CCOC(=O)c1c(C)nc(NNC(=O)c2cccc3c(=O)c4ccccc4[nH]c23)nc1-c1ccc(CC(C)C)cc1,IC50,[6],4.32 µM
same,IC50,[7],8.61 µM
CCOC(=O)c1c(C)nc(NNC(=O)c2cccc3c(=O)c4ccccc4[nH]c23)nc1-c1ccc(F)cc1,IC50,[6],7.3 µM
O=C(c1cccc2c(=O)c3ccccc3[nH]c12)N1CCN(c2ccccc2)CC1,IC50,[8],4.5 µM
same,IC50,[9],5.1 µM
same,IC50,[10],6.5 µM
COc1cc2c(c(O)c1OC)c(=O)c1ccccc1n2C [ARBORININE],IC50,[11],1.84 µM
same,IC50,[12],1.84 µM
same,IC50,[13],1.84 µM
CN(C)CCNC(=O)c1ccc([N+](=O)[O-])c2[nH]c3ccccc3c(=O)c12,IC50,[3],1.2 µM
COc1cc2c(=O)c3cccc(CC(=O)O)c3[nH]c2c(C)c1C,EC50,[14],134 µM
CCN(CC)CCCCn1c2ccccc2c(=O)c2c(OC(C)=O)cc(OC(C)=O)cc21,IC50,[15],0.45 µM
CCOC(=O)c1c(C)nc(NNC(=O)c2cccc3c(=O)c4ccccc4[nH]c23)nc1-c1ccc(OC)cc1,IC50,[7],6.28 µM
O=c1c2ccccc2n(CCCCN2CCN(CCO)CC2)c2c(Cl)cccc12,IC50,[16],1.07 µM
same,IC50,[17],0.49 µM
same,IC50,[18],0.45 µM
Cc1ccc(NC(=O)Cn2c3ccccc3c(=O)c3cc(C)ccc32)cc1,IC50,[19],1.8 µM
same,IC50,[20],5.2 µM
CC(=O)Nc1cc2c(=O)c3ccccc3n3c(=O)n(CCN(C)C)c(=O)c(c1)c23,IC50,[21],0.86 µM
COc1c(O)ccc2c(=O)c3c(O)cc4c(c3n(C)c12)C=CC(C)(C)O4 [CITRACRIDONE I],IC50,[22],12.5 µM
same,IC50,[23],12.5 µM
same,IC50,[24],12.5 µM
same,IC50,[25],12.5 µM
COc1cccc2c(=O)c3ccccc3n(CCCCN3CCN(CCO)CC3)c12,IC50,[26],< 6 µM
Cc1cccc2c(=O)c3ccccc3n(CCCCN(CCO)CCO)c12,IC50,[27],8.1 µM
CN(C)CCn1c(=O)c2cc(N)cc3c(=O)c4ccccc4n(c1=O)c32,IC50,[21],63 µM
COc1cc(Cn2c3ccc(C(=O)CCN4CCCC4)cc3c(=O)c3cc(C(=O)NCCN4CCCC4)ccc32)cc(OC)c1,IC50,[28],0.28 µM
COc1cc(OC)c2c(=O)c3ccccc3n(C)c2c1,IC50,[29],3.38 µM
Cc1ccc2c(c1)c(=O)c1ccccc1n2CC(=O)NCc1ccccc1,IC50,[20],5.2 µM
COc1cc(O)c(OC)c2c1c(=O)c1cccc(O)c1n2C,IC50,[4],0.22 µM
same,IC50,[5],0.22 µM
N#Cc1c(F)c(Cl)c2[nH]c3ccccc3c(=O)c2c1F,IC50,[30],0.007 µM
CCOC(=O)c1c(C)nc(NNC(=O)c2cccc3c(=O)c4ccccc4[nH]c23)nc1-c1ccccc1F,IC50,[7],7.12 µM
O=C(NC(=O)n1c(-c2ccccc2)nc2ccc(Br)cc2c1=O)c1cccc2c(=O)c3ccccc3[nH]c12,IC50,[31],2.9 µM
same,IC50,[32],6 µM
same,IC50,[33],9.8 µM
same,IC50,[34],7.9 µM
CC(C)=CCc1c(O)c(CC=C(C)C)c2c(c1O)c(=O)c1ccccc1n2C,Activity,[35],48%
Cc1ccc(NC(=O)c2cccc3c(=O)c4ccccc4[nH]c23)cc1,IC50,[8],6.5 µM
same,IC50,[9],7.4 µM
same,IC50,[10],8.3 µM
Cc1ccc2c(c1)c(=O)c1ccccc1n2CCCCN(CCO)CCO,IC50,[27],6.1 µM
COc1cc2c(cc1OCCCNC(=O)c1cccc3c(O)c4ccccc4nc13)N=C[C@@H]1CCCN1C2=O,CC50,[36],0.07 µM
same,CC50,[37],< 0.01 µM
same,CC50,[38],< 0.01 µM
same,CC50,[39],0.05 µM
O=C(NN1CCN(c2ccccc2)CC1)c1cccc2c(=O)c3ccccc3[nH]c12,IC50,[8],4.5 µM
same,IC50,[9],5.1 µM
same,IC50,[10],6.6 µM
CCN(CC)CCCCn1c2ccccc2c(=O)c2cc(F)ccc21,IC50,[15],0.51 µM
O=c1c2ccccc2n(CCCCN2CCN(CCO)CC2)c2ccc(Br)cc12,IC50,[26],3.7 µM
CC(=O)Nc1ccc2[nH]c3c(C(=O)NCCN(C)C)cccc3c(=O)c2c1,IC50,[21],22 µM
O=C(c1ccc2c(c1)c(=O)c1ccccc1n2CCCCO[N+](=O)[O-])N1CCOCC1,IC50,[40],0.8 µM
same,IC50,[41],0.8 µM and > 2.7 µM
same,IC50,[42],> 1.9 µM
COc1cc2[nH]c3c(O)cccc3c(=O)c2c(O)c1CC=C(C)C,IC50,[43],1.43 µg/mL
same,IC50,[44],1.43 µg/mL
COc1ccc(CNC(=O)Cn2c3ccccc3c(=O)c3cc(C)ccc32)cc1,IC50,[19],1.8 µM
same,IC50,[20],5.2 µM
